This is an account of results in a melting point compilation (Tetko et al.; mined from patent text by program, amines drawn as free bases though some values may be those of a salt).

By melting point is commonly meant the temperature of the solid-liquid transition.

The compound `COC(=O)N1CCC(=NO)c2cc(Cl)ccc21` displayed a melting point of 162 to 163 °C.

Turning to `COC(=O)c1ccc2cc(CCc3cc4ccc(C(=O)OC)cc4o3)oc2c1`, the melting point fell in the range of 175 to 177 °C.

Compound `CCCCCCCCCCCc1nccn1-c1nc(-c2ccc(Cl)cc2)c(CCCOc2ccccc2OC)o1` returned a melting point of 53 to 54 °C.

For the compound `Cc1ccc(C2(C(=O)O)CC2C(=O)O)cc1` (single isomer, unassigned; (-)), the melting point was 145 to 148 °C.

As to `O=S(Cc1ccccc1)c1ncc(Br)cn1` (centres undefined), the melting point is 101 °C.

On to `COc1ccc(-c2nc(C(=O)OC(C)C)cc(Cl)c2Cl)cc1`, for which the melting point is 113 to 116 °C.

`CC(C(N)=O)C(O)(Cn1cncn1)c1ccc(Cl)cc1` (centres undefined) displayed a melting point of 186 to 189 °C.

Consider `CC1CCC2(OC1)OC1CC3C4CCC5CC(=O)CCC5(C)C4CCC3(C)C1C2C` (centres undefined), for which the melting point fell in the range of 209 to 211 °C.

Regarding `CC(=O)OC(=O)c1cc(CCl)ccc1O`, the melting point is 119 to 121 °C.

`Oc1c(-c2ccccc2)sc2c(C(O)c3ccccc3)nccc12` (centres undefined) showed a melting point of 214 to 215 °C.

Turning to `CCc1nccc(NC2COC(c3ccccc3)OC2)c1Cl` (centres undefined), the melting point lay in the range of 119 to 120 °C.

The compound `CCc1ncccc1NC(=NC#N)NC(NC(=O)Cc1ccc(Cl)cc1)C(C)(C)C` (centres undefined) gave a melting point of 112 to 114 °C.

`O=C(O)CCCC1C(=O)Nc2ccccc21` (centres undefined) displayed a melting point of 79 to 80 °C.

On to `CN(C)C(=O)C(c1ccccc1)(c1ccccc1)c1ncc[nH]1`, for which the melting point is 202 °C.

For `CC1=C(C(=O)OCc2ccccc2)C2CCC(CCOC(=O)c3ccc(Br)cc3)N2C(=NC(=O)c2ccc(Br)cc2)N1` (centres undefined), the melting point lay within 175 to 176 °C.

As to `O=C1Nc2c(O)cc(Cl)cc2C(C#CC2CC2)(C(F)(F)F)O1` (single isomer, unassigned; (-)), the melting point was 170 to 172 °C.

Consider `CCOC(=O)n1c(=O)n(CCCl)c2cc(OC)ccc21`, for which the melting point was in the range of 116 to 118 °C.

`CC(=C(c1ccc(N(C)C)cc1)c1ccc(N(C)C)cc1)P(C(C)(C)C)C(C)(C)C` yielded a melting point of 133 to 135 °C.

For the compound `Nc1ccc(C=Cc2ccc3ccccc3n2)cc1`, the melting point fell in the range of 178 to 180 °C.

`CCn1nc2c(N)nc3ccccc3c2c1CCS(C)(=O)=O` showed a melting point of 220 to 222 °C.

Consider `COc1ccc(OCC2SCCN2C(=O)CCl)cc1` (centres undefined), for which the melting point lay in the range of 51 to 53 °C.

Consider `O=c1[nH]c2cccc3c2n1CCC(NCCO)C3O` (centres undefined), for which the melting point stood at 220 °C.

`O=S(=O)(Nc1cc(C(F)(F)F)ccc1-c1cc(Oc2ccc3cccnc3c2)ncn1)c1ccccc1` came in with a melting point of 168 to 170 °C.

For `CS(=O)(=O)C(S(C)(=O)=O)S(=O)(=O)O`, the melting point is more than 300 °C.

`CCOC(=O)c1cc(C(=O)OCC)c(N)[nH]1` yielded a melting point of 147 to 149 °C.

`COc1ccc2c(c1)COCc1cc(OC)c(OC)c(OC)c1-2`: the melting point was in the range of 151 to 153 °C.

Compound `O=C(c1ccc(O)cc1)c1ccc(Cl)cc1Cl` yielded a melting point of 140 °C.

Take `CNC(=O)Sc1ncc(Cl)cn1`: the melting point was 115 °C.

Turning to `O=C1OC(=O)C(c2ccccc2)=C1c1ccccc1`, the melting point lay within 183 to 184 °C.

In turn, `Cc1ccc2c(c1)C(=O)c1ccc(C(N)=O)cc1S2(=O)=O` gave a melting point of 305 °C.

As for `COC(=O)CCC(OC(=O)Oc1ccccc1)C(=O)c1ccc(Cl)cc1` (centres undefined), the melting point is 97 to 98 °C.

As for `COc1ccc(-c2ccc3nnn(Cc4ccc5ncccc5c4)c3n2)cc1OC`, the melting point fell in the range of 149 to 152 °C.

Turning to `OC(COc1ccc(Cl)cc1)CN1CCN(c2ncccc2F)CC1` (centres undefined), the melting point lay in the range of 73 to 76 °C.

`CC1(C)NC(=O)N(CC(CS(=O)(=O)c2ccc(-c3ccc(C(F)(F)F)cc3)cc2)N(O)C=O)C1=O` (centres undefined) registered a melting point of 180 to 182 °C.

`CC(C)CCN1C(=O)C2(COc3cc(O)ccc32)c2ccccc21` (centres undefined) came in with a melting point of 101 to 103 °C.

Compound `Cc1c(C(=O)Nc2ccc(N3CCC(NCCO)CC3)c(C#N)c2)cnn1-c1ccc(Cl)cc1` yielded a melting point of 181 °C.

`O=C1c2ccccc2C(=O)N1CCCSc1ncccn1` returned a melting point of 81.5 to 82.5 °C.

In turn, `CC(COc1ccc(O)c(C(N)=O)c1)NCC(O)c1ccccc1` (centres undefined) displayed a melting point of 152 to 154 °C.

`Cc1[nH]c(=O)c2c(N)c([N+](=O)[O-])ccc2c1C` yielded a melting point of more than 300 °C.

For the compound `COC1=Cc2ccccc2Nc2ccccc21`, the melting point turned out to be 124 °C.

As for `CC(C)c1nc2cc(N)ccn2n1`, the melting point was in the range of 174 to 176 °C.

The compound `CCOc1ccc(-c2nc3n(c2-c2ccc(OCC)cc2)CCC3)cc1` came in with a melting point of 135 to 138 °C.

`CCCOc1ccccc1-c1nc2cc(NC)ccc2c(=O)[nH]1` had a melting point of 204 to 205 °C.

Turning to `O=C(NCCO)c1cccc(-c2cccc3c2CN(Cc2cccc(C(F)(F)F)c2)C3=O)c1`, the melting point was in the range of 148 to 149 °C.

`CCOC(=O)c1cccn1CCN1CCC(=C2c3ccccc3CCn3ccnc32)CC1` returned a melting point of 158 °C.

Compound `CC1(C)Cc2ccc(C#N)cc2N(C(=O)Nc2cccnc2)C1` showed a melting point of 164 to 166 °C.

With `Cn1ncc(-c2ccnc(Cl)n2)c1-c1ccc(Cl)cc1Cl`, the melting point fell in the range of 122 to 125 °C.

The compound `CCCCc1nn(-c2cc([N+](=O)[O-])ccc2C(F)(F)F)c(=O)n1Cc1ccc(-c2ccccc2S(=O)(=O)NC(C)(C)C)cc1F` displayed a melting point of 145 to 146 °C.

In the case of `CCCCCCCCCc1ccc(-c2ccc(OCC(C)CC)nn2)cc1` (centres undefined), the melting point was 78 °C.

The compound `Cc1ccc(S(=O)(=O)On2nnc3ccc([N+](=O)[O-])cc32)cc1` registered a melting point of 142 to 144 °C.

The compound `COc1cc(C#N)ccc1-c1cc(-c2cc(C#N)ccc2OC)on1` had a melting point of 271 to 273 °C.

`CC(=O)c1ccc(F)c(N(C)C(C)=O)c1`: the melting point is 75.5 to 76.5 °C.

Regarding `N#Cc1ccc(N(Cc2ccc(OS(N)(=O)=O)c(Br)c2)n2cnnc2)cc1-c1cc2ccccc2o1`, the melting point is 199 to 200 °C.

Compound `CCOc1cc(CC)ccc1C1CCN(CCCCNC(=O)c2sc(-c3ccc(C(F)(F)F)cc3)nc2CO)CC1` gave a melting point of 150 °C.

Take `CSc1c(C(=O)O)ccc(Cl)c1F`: the melting point was determined as 150 °C.

In turn, `CC(=O)N1c2ccccc2-n2cc(Cc3cccnc3)c(=O)c3cccc1c32` registered a melting point of 143 to 144 °C.

`O=C1NC(=O)c2c1c(-c1ccccc1Cl)cc1c2c2cc(O)ccc2n1CCCSc1ccccc1` had a melting point of 229 to 231 °C.

`O=C(O)c1cc(C(F)(F)F)ccc1Sc1ccccc1` registered a melting point of 140 to 145 °C.

`COc1cccc2c1CCCC2n1cc[nH]c1=S` (centres undefined) displayed a melting point of 176 to 177 °C.

In the case of `CN(C)C(=O)CCC(=NNC(N)=S)c1ccccc1`, the melting point lay within 173 to 175 °C.

In turn, `COc1cc(N)c(Cl)cc1C(=O)NCC1CCN(CCCCCC(=O)c2ccc(O)cc2O)CC1` yielded a melting point of 96 to 99 °C.

`N=C(NO)c1ccc(S(N)(=O)=O)s1` returned a melting point of 189 °C.

The compound `COC(=O)c1cc(NC(=O)c2ccccc2Cl)c2cc(Cc3ccc(F)cc3)cnc2c1O` returned a melting point of 230 to 232 °C.

With `CCC(=O)OCOC(=O)Nc1ccc(Cl)cc1`, the melting point lay in the range of 90 to 91 °C.
